Legend:
[1] = stability (isomerization) of acetyl sphingosine isomers in phosphate buffer pH 7.4 (LC-ELSD); type: physicochemical
Method: To a solution of 1-O-AS (0.25 mg) or 3-O-AS (0.25 mg) in water (400 μl) and DMSO (50 μl) at RT was added sodium phosphate buffer (pH 7.4, 0.1 M, 50 μl). The solution was mixed homogeneously with micropipette and was incubated at 25 °C for 10 min. Reverse-phase HPLC was performed using Agilent 1220 coupled with Agilent 1260 Infinity ELSD. Phenomenex Kinetex 1.7 μm C8 100 A ([…] LC column) at a flow rate of 0.5 ml min^−1 was used. A gradient of acetonitrile with 0.1% formic acid was used as an eluent.

[2] = system: COX2; experiment: SphK1-mediated COX2 acetylation with [14C] acetyl-CoA (ATP competition, SphK1 mutants; Supplementary Fig 1h,i); type: biochemical, human; settings: ATP 0-1000 µM as competitor of acetyl-CoA
Excerpt: Single point mutations in SphK1 (R56A, R57A, R24A, R185A, D178A, and F192A) and COX2 (S565A, N181A, T564A, and S567A) were generated using the In-Fusion Cloning Kits (Clontech) and ORF cDNA expression plasmids of human SphK1 and COX2 gene (Sino Biological Inc, HG15679-NH and HG12036-NH), according to the manufacturer’s instructions. The forward and reverse primers described in Supplementary Table 4. The SphK1 WT, SphK1 mutants, COX2 WT, and COX2 mutant plasmids were transformed in the One shot TOP 10 competent cell (Invitrogen). The bacteria were grown in Luria-Bertani (LB, Invitrogen) plates supplemented with 50 μg ml^−1 kanamycin (Sigma-Aldrich) at 37 °C. The bacterial cell pellets were resuspended in lysis buffer containing 20 mM sodium phosphate (GE Healthcare), 500 mM NaCl (GE Healthcare), 20 mM imidazole (pH 7.4) (GE Healthcare), 0.2 mg ml^−1 lysozyme (Sigma-Aldrich), 20 μg ml^−1 DNase I (Roche), 1 mM MgCl2 (Sigma-Aldrich), and 1 mM PMSF (Sigma-Aldrich) before being lysed by sonication and clarified by centrifugation at 15,493×g for 10 min. Proteins were purified from the soluble fraction using His-Spin Trap columns (GE Healthcare) and the binding and acetylation assays were performed.
Acetylation assays were performed according to previously described procedures with minor modifications. […] N-AS (2 μCi, ARC UK Ltd, ARC-1024) at 37 °C for 2 h. [^14C] aspirin (2 μCi, ARC UK Ltd, ARC-0473) was conducted as the positive control. The reactions were terminated by placing the reaction tubes in ice for 5 min. To evaluate in vivo neuronal and microglial COX2 acetylation, 10 μCi [^14C] N-AS was orally administrated to 9-months-old WT and APP/PS1 mice. After 1 h, neuron and microglia were isolated and sonicated in culture media. To immunoprecipitate acetylated COX2, the sample was incubated with COX2 antibody (Abcam, ab15191) at 4 °C for 24 h and precipitated by adding 50 μl of protein-A sepharose (GE Healthcare). Acetylated COX2 proteins bound to the beads were analyzed using a Tri-Carb 3110TR liquid scintillation counter (Perkin-Elmer).

[3] = system: immortalized human microglia; experiment: LM-SPM profile of human microglia (LC-MS/MS, Supplementary Table 3, Fig 6d); type: cell-based
[4] = system: immortalized human microglia; experiment: live-cell phagocytosis assay (bead uptake, Supplementary Fig 6e,f); type: cell-based; settings: zileuton with N-AS in Aβ-treated human microglia
Method: Live-cell phagocytosis assays were performed according to previously described procedures with minor modifications. Briefly, in a glass bottom cell culture dish (SPL, 101350), adult SV40 immortalized human microglia cells (Applied Biologics Materials, T0251) were seeded for phagocytosis assay. […] After incubation, the microglia were treated with 0 or 2.5 μM N-AS (Sigma-Aldrich, 01912) at 37 °C for 2 h. FITC beads (Invitrogen) preopsonized in FBS (Gibco) were added at a concentration at 0.01% and then immediately observed using a laser scanning confocal microscope equipped with a live cell chamber system (FV3000, Olympus) for 2 h. Confocal images were collected every 5 min for 2 h and analyzed using the ImageJ software (National Institutes of Health).

[5] = system: immortalized human microglia; experiment: ac-S565 COX2 in human microglia (western blot, immunofluorescence, Supplementary Fig 6b,c); type: cell-based; settings: zileuton with N-AS in Aβ-treated human microglia vs without zileuton
Method: To confirm the generation and roles of N-AS in neurons, cells from E18 C57BL/6 mice were prepared as previously described. Cortices were dissected and then dissociated followed by incubation in papain (Worthington) at 37 °C for 15 min. Neurons were plated on poly-L-lysine-coated coverslips with neuronal culture medium, serum-free Neurobasal medium (Gibco) containing 2% B27 supplements (Gibco), 1 mM Glutamax supplement (Gibco), and 100 U ml^−1 streptomycin/ 100 U ml^−1 penicillin (Gibco) at 37 °C in a humidified atmosphere of 5% CO2. Aβ 1–42 (10 μM, 24 h, Invitrogen, 03112) was exposed to neurons and the cells were analyzed for the generation and roles of N-AS. Primary astrocyte cultures were prepared from C57BL/6 mice as described previously. In brief, after removal of the meninges, postnatal day 7 (P7) mouse brain tissues were minced and incubated in a rocking water bath at 37 °C for 30 min in the presence of 0.25% trypsin-EDTA (Sigma-Aldrich). Enzyme-digested dissociated cells were triturated with astrocyte-specific medium (DMEM/F12 containing 10% FBS and 1% penicillin-streptomycin) and centrifuged at 155×g for 8 min. The pellet was resuspended in astrocyte-specific medium and passed through a 40-μm cell strainer. The filtrate was allowed pre-adherence for 30 min to remove any contamination from fibroblasts before being seeded in dishes and the addition of astrocyte-specific medium. To split the cells, Ara-C was added to the dishes and they were then placed in a heated shaker for 6–7 h. The medium was removed from the dishes, and trypsin-EDTA was added to the dish and incubated at 37 °C for 5–10 min. After centrifugation at 155×g for 8 min, the supernatant was removed, and the astrocytes were maintained in culture by feeding […] with astrocyte-specific medium. Primary microglia cultures were prepared from C57BL/6 mice as described previously. In brief, the cortices of 2-months-old mice were minced in Hibernate A (Gibco)/B27 supplements (Gibco) medium and dissociated using papain (Worthington) solution. After tissue trituration, cells were separated by Optiprep (Sigma-Aldrich) density gradient centrifugation. Microglia were plated with microglia-specific medium (DMEM/F12 containing 10% FBS and 1% penicillin-streptomycin). The immortalized human microglia (Applied Biologics Materials, T0251) were cultured in PriGrow III (Applied Biologics Materials, TM003) (supplemented with 10% FBS and 1% penicillin-streptomycin) at 37 °C in a humidified atmosphere of 5% CO2. […] The human microglia treated with Aβ 1–42 and/or zileuton was incubated with N-AS (2.5 μM, 2 h, Sigma-Aldrich, 01912), and were analyzed for the generation and roles of N-AS.
Thioflavin S (Sigma-Aldrich) staining was carried out according to previously described procedures. We used 6E10 (mouse, 1:100, Signet, SIG39300), anti-20G10 (mouse, 1:1000, provided by D. R. Howlett, GlaxoSmithKline, Harlow, Essex, UK) for Aβ42, anti-G30 (rabbit, 1:1000, provided by D. R. Howlett) for Aβ40, SMA (mouse, 1:400, Sigma-Aldrich, A2547), AT8 (mouse, 1:500, Thermo Fisher Scientific, MN1020), Caspase-3 (mouse, 1:200, Novus Biologicals, NB100-56708), ac-S565 (rabbit, 1:100), COX2 (mouse, 1:250, Thermo Fisher Scientific, 35-8200), Iba1 (rabbit, 1:500, Wako, 019-19941 and goat, Abcam, ab5076), NeuN (mouse, 1:500, Millipore, MAB177), GFAP (rabbit, 1:500, Dako, N1506 and chicken, 1:500, Abcam, ab4674), and Lamp1 (mouse, 1:200, Abcam, ab24170). The sections were analyzed with a laser-scanning confocal microscope (FV3000; Olympus) or with a BX51 microscope (Olympus). MetaMorph software (Molecular Devices) was used to quantification. Three-dimensional reconstruction of microglia was recorded and analyzed using IMARIS software (Bitplane)[11]. […]

For `CCCCCCCCCCCCC/C=C/[C@@H](O)[C@@H](N)COC(C)=O.O=C(O)C(F)(F)F` [1-O-AS, (2S,3R,E)-1-Acetoxy-3-hydroxyoctadec-4-en-2-aminium trifluoroacetate], the “time to isomerization to N-AS” value [1] was “less than 10 min”.

With `CCCCCCCCCCCCC/C=C/[C@@H](OC(C)=O)[C@@H](N)CO.O=C(O)C(F)(F)F` [3-O-AS, (2S,3R,E)-3-Acetoxy-1-hydroxyoctadec-4-en-2-aminium trifluoroacetate] the “time to isomerization to N-AS” value [1] was “less than 10 min”.

In the case of `Nc1ncnc2c1ncn2[C@@H]1O[C@H](COP(=O)(O)OP(=O)(O)OP(=O)(O)O)[C@@H](O)[C@H]1O` [ATP], the “SphK1-mediated COX2 acetylation, in words” value [2] is reported as “inhibited in a concentration dependent manner”.

For `CC(c1cc2ccccc2s1)N(O)C(N)=O` (centres unmarked) [zileuton, reference compound], the “LTB4, in words” value ([3]; zileuton treatment) was “LTB4 was not detected”, the “PGE2, in words” value ([3]; zileuton treatment) was “reduced PGE2” and the “production of N-AS-triggered SPMs, in words” value ([3]; zileuton with N-AS in Aβ-treated human microglia) was “inhibited”. For the same molecule, the “restoration of phagocytic capacity, in words” value [4] was “inhibited” and the “N-AS-induced COX2 acetylation, in words” value [5] was “no significant”.
